From patent publication US6723897B2, “Methods for controlling gibberellin levels” (Monsanto Technology, LLC, priority 1998, dated 2004)

Columns and labels:
[1] = test system: wild-type soybean line A3237; assay: Experiment II second greenhouse test, seed imbibition, wild-type soybean; format: in vivo, Glycine max; details: 0.025 mg/ml; seeds imbibed 6 hours
Experimental: (The compounds are tested in Experiment I at only one concentration, i.e., 0.25 mg/ml). Test tubes contained […] of ethanol solution per tube. Final volumes are made up to 30 ml with deionized water. After shaking, the treatment solutions (15 ml each) are transferred to each of two 50 ml test tubes. […] Twenty seeds are used in each treatment. Dry seed, ethanol/water-imbibed seed (1% ethanol in water, v/v), and water-imbibed seeds are included as controls. Seeds are imbibed for 6 hours in the test solutions, then planted in bread pans containing Metromix 350 (The Scotts Company, Marysville, Ohio), and covered with 0.5″ Metro-mix. Covered pans are transferred to the greenhouse and subirrigated. Illumination is at a light intensity of 300-400 μmolm^−2s^−1 photosynthetic photon flux; 16 hours light/8 hours dark. Subsequent waterings are also through sub-irrigation until the test is terminated three weeks later. Observations included the number of dwarf, intermediate, and tall plants; plant height; uniformity of rescue; and any visual effects. Digital photographs are also taken.

[2] = test system: wild-type soybeans (line A3237); assay: Summary of first two greenhouse experiments, elongation of wild-type soybeans
In short: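 Seeds of wild-type A3237 or GA-deficient dwarf line 719 imbibed 6 h in ethanol-water compound solutions (0.25, 0.025, 0.0025 mg/ml; GA9 at 0.125, 0.0125, 0.00125 mg/ml; Experiment I 0.25 mg/ml only), 20 seeds per treatment, then grown in greenhouse. Dwarf/intermediate/tall counts, plant height and rescue uniformity recorded after three weeks.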

[3] = test system: wild-type soybean line A4922; assay: Field trial of seed coating application rates, wild-type soybean
Experimental: GA3, GA3-3-acetate, GA5, GA9, and GA12 are evaluated in further field trials. […] The objectives of these tests are: 1) to determine if seed coatings, as compared to imbibition, of GA compounds facilitate rescue of constitutively GA-deficient transgenic dwarf soybeans (transgenic lines 719−2 plus 719+17) without causing elongation of wild-type soybeans (line A4922), and 2) to determine the seed treatment rate ranges for each of the selected GA compounds that would provide rescue of constitutively GA-deficient transgenic dwarf soybeans (transgenic lines 719−2 plus 719+17) without causing elongation of wild-type soybeans (line A4922).
Seeds are treated with GA3, GA5, GA9, GA12, and GA3-3-acetate at rates of 0, 0.1, 1, 10, and 100 μg/seed. These GA compounds are applied to the seeds using a Hege 11 seed treater (Hans-Ulrich Hege GmbH & Co., Waldenburg, Germany); 100% acetone is used as the carrier solvent. The amount of liquid introduced into the seed treater is six fluid ounces/100 lbs seed rate. In addition, GA12 is tested at 50 μg/seed. The untreated control (UTC) consisted of dry, untreated seeds. Seeds of constitutively GA-deficient transgenic dwarf soybean line 719 and wild-type A4922 are sown in both light and heavy soil. The planting depth is 0.5 to 1 inch (1.27 to 2.54 cm); watering is via drip irrigation. The experiment is carried out in three repetitions, using 25 seeds/plot (one five foot (152.4 cm) long row) for line 719, and 75 seeds/plot (two eight foot (243.8 cm) rows) for line A4922. Observations included total emergence, number of dwarfs not rescued, uniformity in plant height, average plant height, visual notes, and digital photos.
In all the experiments reported in Tables 17-24, treatments are replicated three times in a randomized block design. Data are analyzed using LSD (least significant difference) 0.05 probability using the PRM 5.0 Statistical Analysis Program (SAS Institute, North Carolina).

[4] = test system: AX5/antisense CPScc soybean line 234 (R3); assay: Hilum seed treatment of epicotyl-intensive GA-deficient soybean, height (FIG. 43); format: in vivo, Glycine max; details: 10 DAP
Experimental: The purpose of this study is to evaluate the ability of four GA compounds, i.e., GA9, GA5, GA3-3-acetate, and GA12, to restore normal growth in AX5/antisense CPScc soybean lines when applied as a seed treatment.
Line 46 plants are R2; Line 234 plants are R3.
The GA compounds are dissolved in ethanol and applied to the hilum of dry seeds as not more than 10 μl droplets with a syringe. If multiple applications are made to seeds, the previous application is allowed to dry before a subsequent application is made.
Seeds are sown 1 inch deep in commercial potting soil (Metromix 200) in 4-inch plastic pots and placed in a greenhouse set for 12 hours artificial light and a temperature regime of 85° F. (29° C.) day and 75° F. night (24° C.). Pots are watered as necessary by overhead hand watering. Hypocotyl and epicotyl measurements are made for each plant at various stages of plant growth.
The lower dashed horizontal line represents the total height of untreated AX5 line 234 soybeans. The upper dashed horizontal line represents the total height of untreated wild-type A4922 soybeans. Measurements are made 10 days after planting.

With `C=C1C[C@]23C[C@@]1(O)CC[C@H]2[C@@]12CC=C[C@@](C)(C(=O)O1)[C@H]2[C@@H]3C(=O)O` [GA5] the “Significant Visual Observations on Line A3237” value [1] was “Normal height”, the “Elongation of wild-type soybeans” value ([2]; 0.0025 mg/ml solution (ethanol-water)) was 0 and the “Elongation of wild-type soybeans” value ([2]; 0.025 mg/ml solution (ethanol-water)) was 0. The “Elongation of wild-type soybeans” value ([2]; 0.25 mg/ml solution (ethanol-water)) was “+”, the “A4922 Height, cm, Heavy soil” value ([3]; 0.1 μg compound per seed) was 4.3 ghi cm and the “A4922 Height, cm, Light soil” value ([3]; 0.1 μg compound per seed) was 6.0 fgh cm. The “No. A4922 Emerged, Heavy soil” value ([3]; 0.1 μg compound per seed) was 32.3 b-g, the “No. A4922 Emerged, Light soil” value ([3]; 0.1 μg compound per seed) was 51.7 bcd and the “A4922 Height, cm, Heavy soil” value ([3]; 1 μg compound per seed) was 7.0 ef cm. For the same compound, the “A4922 Height, cm, Light soil” value ([3]; 1 μg compound per seed) was 7.3 fg·cm, the “No. A4922 Emerged, Heavy soil” value ([3]; 1 μg compound per seed) was 37.3 b-f and the “No. A4922 Emerged, Light soil” value ([3]; 1 μg compound per seed) was 47.3 c-g. The “A4922 Height, cm, Heavy soil” value ([3]; 10 μg compound per seed) was 17.3 b cm, the “A4922 Height, cm, Light soil” value ([3]; 10 μg compound per seed) was 16.3 c cm and the “No. A4922 Emerged, Heavy soil” value ([3]; 10 μg compound per seed) was 32.7 b-g. For the same compound, the “No. A4922 Emerged, Light soil” value ([3]; 10 μg compound per seed) was 45.7 c-h, the “A4922 Height, cm, Heavy soil” value ([3]; 100 μg compound per seed) was 22.3 a cm and the “A4922 Height, cm, Light soil” value ([3]; 100 μg compound per seed) was 29.7 a cm. The “No. A4922 Emerged, Heavy soil” value ([3]; 100 μg compound per seed) was 38.3 b-e, the “No. A4922 Emerged, Light soil” value ([3]; 100 μg compound per seed) was 46.7 c-g and the “restoration of height of line 234 soybeans” value ([4]; hypocotyl and epicotyl elongation, hypocotyl to epicotyl ratio not maintained) was “restore normal height to line 234 soybeans”. For the same compound, the “response of line 234 height” value ([4]; seed treatment rates between 0.1 and 1 μg/seed) was “generally similar response”.
